Experimental data reported in patent US20100284925A1, “Small Molecule Intervention for Obesity” (priority 2006, published 2010).
Entries after “also recorded” stand apart in the source; their conditions may differ.

How the values were obtained:
PLTP promoter = assay: PLTP-promoter luciferase reporter in HepG2 and transgenic HepG2/PLTPpLuc cells; type: cell-based, human; details: for transactivation of PLTP promoter: luciferase reporter, HepG2 or HepG2/PLTPpLuc cells; for effect on transactivation of PLTP promoter by prieurianin: co-treatment with prieurianin, 200 nM staurosporine or 200 nM TSA
From the text: FIG. 2A. A 1.5 Kb PLTP promoter fused to a luciferase reporter was transactivated by topotecan dose-dependently.
FIG. 2B. Activation of PLTP promoter by topotecan in HepG2 transgenic cells containing the PLTP-promoter luciferase reporter gene fused to the neomycin selectable marker cassette and stably transfected into HepG2 cells to generate the transgenic line (Top panel). Dose-dependent induction of PLTP promoter by topotecan (Bottom panel). Results are the means S.E. of three experiments after normalization with Renilla luciferase.
FIG. 3A. Dose-dependent transactivation of the PLTP promoter by prieurianin in the HepG2 transgenic cells. Results are the means S.E. of three experiments after normalization with Renilla luciferase.
FIG. 3B. […] 1, Control; 2. […] Results are the means±S.E. of triplicate experiments.
FIG. 11. Transactivation of PLTP promoter by cytotoxic and non-cytotoxic drugs. Survey of transactivation of the PLTP promoter by various cytotoxic and non-cytotoxic drugs in the HepG2 transgenic cells was conducted. Results are the means S.E. of three experiments.
FIG. 12. Effects of trichostatin A (TSA) on transactivation of PLTP promoter by prieurianin. Dose response activation of PLTP promoter by prieurianin either in the presence or the absence of 200 nM TSA. Results are the means S.E. of three experiments.
To determine whether non-cytotoxic small molecules could induce PLTP expression, the inventor herein subcloned the PLTP-promoter luciferase reporter into a vector containing a neomycin (G418)-resistance selectable marker and generated a transgenic HepG2 cell line, which harbors the PLTP-promoter luciferase reporter, by stable gene transfection and selection with G418.
The transgenic cells were then screened with a library of small molecules derived from natural products.

NIH-3T3/L1 preadipocytes = assay: Differentiation of NIH-3T3/L1 preadipocytes into adipocytes (oil red O or Nile Red staining); type: cell-based
Description: FIG. 7. […] NIH-3T3/L1 cells were induced into differentiation and simultaneously treated with 2 μM of prieurianin. Differentiated cells were stained with oil red O—FIG. 7A, undifferentiated control.
Histogram represents A510 nm absorbance of oil red O stain isopropanol extracts from cells. Results are means±S.E. of triplicate experiments.
(§1) FIG. 19. Effects of bufalin on preadipocyte differentiation, and dedifferentiation/delipidation in adipo-cytes. NIH-3T3/L1 cells were induced into differentiation and simultaneously treated with either 1 μM of bufalin or 2 μM of prieurianin. Differentiated cells were stained with Nile Red. Alternatively, preadipocytes were induced into differentiation and five days following differentiation, cells were treated with either 1 μM of bufalin or 2 μM of prieurianin for an additional five days and followed by staining with Nile Red. Stained cells were evaluated by fluorescence microscopy.
To determine the effects of prieurianin on the differentiation of preadipocytes to adipocytes, the NIH-3T3/L1 preadipocytes were treated with or without the drug at the same time when induction of differentiation was initiated.

[1] = test system: differentiated NIH-3T3/L1 adipocytes; assay: Loss of lipid-positive differentiated adipocytes (oil red O, A510; Nile Red); type: cell-based; details: 1 μM bufalin, Nile Red
Description: FIG. 8. Prieurianin induced loss of differentiated adipocytes. NIH-3T3/L1 preadipocytes were induced into differentiation. Five days following differentiation, cells were treated with various concentrations (0.5, 1, and 2 μM) of prieurianin for an additional five days and followed by staining with oil red O. Micrographs were obtained from representatives of triplicate experiments. Isopropanol extracts of positively stained cells were quantified spectrophotometrically at 510 nm as shown in histogram on the right. Results are means±S.E. of triplicate experiments.
as §1
To assess whether prieurianin has any effect on the differentiated adipocytes, the preadipocytes were allowed to differentiate into adipocytes and then were further cultured for about five days before treating the adipocytes with prieurianin for an additional five to six days, followed by oil red O staining for the presence of lipid accumulating adipocytes.

NFκB = assay: NFκB-response element luciferase reporter in L1 preadipocytes; type: cell-based; details: prieurianin 2 μM
C/EBPα = C/EBPα response element luciferase reporter in L1 preadipocytes; type: cell-based; details: prieurianin 2 μM
Description: (§2) FIG. 18. Effects of prieurianin on C/EBPα and β and PPARγ mediated transcription in adipogenesis. Response elements corresponding to C/EBPα and β and PPARγ are cloned into the pGL3 basic luciferase reporter plasmid. L1 preadipocytes were contransfected with the reporter plasmid either in the presence or the absence of the corresponding transcription factors cloned into expression vector, followed by treatment with 2 μM of prieurianin. Cells were harvested for luciferase assay 15-24 hrs later. Results are means±S.E. of triplicate experiments.

C/EBPβ = C/EBPβ response element luciferase reporter in L1 preadipocytes; type: cell-based; details: prieurianin 2 μM
Description: as §2

PPARγ = PPARγ response element luciferase reporter in L1 preadipocytes; type: cell-based; details: prieurianin 2 μM
Description: as §2

[2] = test system: phospholipid transfer protein (PLTP) gene expression; assay: PLTP gene expression in HepG2 cells by DNA microarray and Northern blot; type: cell-based, human
Description: The patent or application file contains at least one drawing executed in color. Copies of this patent with color drawings will be provided by the United States Patent and Trademark Office upon request and payment of necessary fee. FIG. 1. Pharmacological response of HepG2 cells to topotecan by DNA Microarray. HepG2 cells were treated with 500 nM for various times (A) or with various concentrations of topotecan (B) for 24 hrs. Dendrogram of the expression changes of the phospholipid transfer protein (PLTP) is shown. (C) Induction of PLTP expression by topotecan was confirmed independently by Northern blot analysis.
The mechanisms of resistance to topoisomerase (Top) 1 inhibitors by expression genomics were studied by conducting time-course and dose-response experiments by DNA microarray to investigate the pharmacological response of the human hepatocellular blastoma HepG2 cells to topotecan, which were either treated with 500 nM of topotecan (a cytotoxic anticancer agent) for various times (0, 1, 3, 5, 10, 15, and 24 hrs), or with various doses of topotecan (0, 10, 50, 100, 300, 500, and 1000 nM) for 24 hrs.
Activation of PLTP expression by topotecan was temporally regulated and dose dependent, with a late onset, peaking at 24 hrs with an approximately 20-fold induction.

PLTP [3] = assay: Serum PLTP protein by Western blot in normal C57BL/6J mice; type: in vivo; details: normal C57BL/6J mice, 0, 2, 5 and 10 mg/kg
Description: (§3) FIG. 10. Release of adiponectin and PLTP by preadipocytes and adipocytes, and in serum of normal mice. Preadipocytes (B and D) were treated with 2 μM of prieurianin and media collected after 36 hrs for Western blot analysis of either adiponectin (A and B) or PLTP (C and D). Alternatively, five days following differentiation, conditioned media of adipocyets (A and C) were collected for Western analysis. E. Serum of normal C57BL/6J mice given prieurianin or topotecan (0, 2, 5, and 10 mg/kg) was analyzed by Western blot for PLTP.

adiponectin = assay: Adiponectin release into conditioned media (Western blot); type: cell-based; details: NIH-3T3/L1 preadipocytes, approximately 36 hrs after treatment
Description: as §3
Adipose tissue contains various types of cells including preadipocytes and adipocytes. Also, preadipocytes secrete factors involved in their own differentiation. Once differentiated, the mature adipocytes acquire the ability to communicate distally with other organs including brain, liver, and skeletal muscle and locally with other cells such as preadipocytes, endothelial cells and monocytes/macrophages by secreting leptin and adiponectin. In addition, anti-adipogenic cytokines prevent the release of adiponectin by preadipocytes. Thus, the production of adiponectin and PLTP by preadipocytes and adipocytes was assessed.

PLTP [4] = assay: PLTP release into conditioned media (Western blot); type: cell-based
Description: as §3
The expression and secretion of PLTP by preadipocytes and adipocytes was also assessed. Thus, preadipocytes produced and released both the low and the high molecular weight forms of PLTP, while adipocytes secreted only the low molecular weight form (see FIGS. 10C and 10D) into the conditioned media.

For `CCCCCCCCCCCCCC(=O)O[C@@H]1[C@@H](C)[C@@]2(O)[C@@H](C=C(CO)C[C@]3(O)C(=O)C(C)=C[C@@H]23)[C@@H]2C(C)(C)[C@]12OC(C)=O` [TPA, 12-O-tetradecanoylphorbol-13-acetate], the “transactivation of PLTP promoter” value (PLTP promoter) was “induced PLTP promoter”.

`C[C@]12CC[C@H](O)C[C@H]1CC[C@@H]1[C@@H]2CC[C@]2(C)[C@@H](c3ccc(=O)oc3)CC[C@]12O` [bufalin, reference compound] was tested, and the “transactivation of PLTP promoter” value (PLTP promoter) was “stimulates the PLTP promoter like prieurianin”, the differentiation of preadipocytes (NIH-3T3/L1 preadipocytes; 1 μM bufalin, Nile Red) was “did not, however, inhibit the differentiation of preadipocytes” and the “de-differentiation or delipidation in adipocytes” value [1] was “neither causes de-differentiation or delipidation in adipocytes”. The “NFκB-response element mediated transcription” value (NFκB) was “nor did it modulate the transcriptional activity”, the “transactivation potential of C/EBPα” value (C/EBPα) was “nor did it modulate the transcriptional activity” and the “transactivation potential of C/EBPβ” value (C/EBPβ) was “nor did it modulate the transcriptional activity”. For the same compound, the “transactivation potential of PPARγ” value (PPARγ) was “nor did it modulate the transcriptional activity”.

`CN[C@@H]1C[C@H]2O[C@@](C)([C@@H]1OC)n1c3ccccc3c3c4c(c5c6ccccc6n2c5c31)C(=O)NC4` [staurosporine] was tested, and the “effect on TPA activation of PLTP promoter” value (PLTP promoter; co-treatment with TPA) was “abolished”, the “effect on transactivation of PLTP promoter by prieurianin” value (PLTP promoter) was “strongly inhibited PLTP transactivation by prieurianin; also recorded: inhibited” and the “differentiation, staurosporine alone” value (NIH-3T3/L1 preadipocytes; data not shown) was “no observable effects on differentiation”.

`CC[C@@]1(O)C(=O)OCc2c1cc1n(c2=O)Cc2cc3c(CN(C)C)c(O)ccc3nc2-1` [topotecan, reference compound] was tested, and the “PLTP expression by Northern blot analysis” value ([2]; HepG2 cells) was “induced by topotecan dose-dependently”, the “induction of PLTP expression” value ([2]; HepG2 cells, DNA microarray, peaking at 24 hrs) was “approximately 20 fold” and the “onset of PLTP induction following treatment” value ([2]; time-course microarray analysis) was 12 to 15 h. For the same compound, the “transactivation of PLTP promoter” value (PLTP promoter) was “transactivated by topotecan dose dependently”, the “serum PLTP protein levels” value (PLTP [3]) was “a rise in the serum PLTP protein levels” and the “adiponectin release by preadipocytes” value (adiponectin) was “significantly inhibited the production of adiponectin”. The “release of PLTP by adipocytes” value (PLTP [4]; adipocytes) was “induced an increase in the release of only the low molecular weight form of PLTP” and the “release of PLTP by preadipocytes” value (PLTP [4]; preadipocytes) was “release of the low but not the high molecular form of PLTP was reduced”.

In the case of `CC(/C=C/C(=O)NO)=C\[C@@H](C)C(=O)c1ccc(N(C)C)cc1` [trichostatin A], the “effect on transactivation of PLTP promoter by prieurianin” value (PLTP promoter) is reported as “though modest, potentiated the transactivation of PLTP promoter activity by prieurianin”.
